According to patent publication US20130150430A1, “Methods for Impairing the P53/HDM2 Auto-Regulatory Loop in Multiple Myeloma Development Using mIR-192, mIR-194 and mIR-215” (THE OHIO STATE UNIVERSITY, priority 2011, published 2013):

Tests used:
MM1s and NCI-H929 cells = test: Cell cycle analysis by flow cytometry; format: cell-based, human; conditions: 48 hr of transfection after nocodazole synchronization; scrambled-transfected ~30%
Protocol: FIG. 3G, FIG. 3H, FIG. 31, FIG. 3J: Flow cytometry analysis in MM1s (FIG. 3G), NCI-H929 (FIG. 3H) and KMS28BM (FIG. 31) cells (miR-192, miR-194, miR-215 and Scr transfected) at 48 hr of transfection, after first being arrested and synchronized in G2/M phase by Nocodazole for 16 hr. Apoptosis in KMS28BM was evaluated by caspase-3 activity (FIG. 3J). All experiments were performed in triplicate ±SD.
Nocodazole was (Sigma-Aldrich) was dissolved in DMSO as a stock solution of 10 mg/ml for cell cycle arrest in G2/M phase. Cells were first arrested and synchronized in G2/M phase by growth in 80 nM nocodazole for 16 hr. Cells were then washed and fresh medium added. After 6 hr, cell cycle analysis was performed by propidium iodide staining. Corresponding amounts of DMSO alone were added in control experiments. […] For DNA content analysis, cells were fixed in methanol at −20° C., washed again, rehydrated, re-suspended in PBS containing 50 μg/ml propidium iodide (PI) and 50 μg/ml RNase A, and analyzed by flow cytometry (Becton Dickinson). […] After the treatment the cells were analyzed using Caspase-Glo 3 Assay kit (Promega) according to the manufacturer's instructions. Continuous variables were expressed as mean values ± standard deviation (s.d.).

GFP+/Luc+ MM1S cells = test: In vivo homing model, iv injected transfected MM1S cells plus weekly iv miRNA; design: species or system NOD-SCID mice; conditions: for tumor burden (bioluminescence imaging): 5 wk post-injection, 10 μg iv weekly for 4 wk, vs Scr; for bone marrow engraftment of MM1s (human CD-138+ cells by FACS): 35 days after injection, Scr-treated mice ~25±15%
Protocol: FIG. 7C: In vivo confocal imaging. 8×10^6GFP+/Luc+ MM1s cells were transfected using either pre-miRNA-192, miR-194, miR-215 and Scr RNA oligos and then iv injected into mice immediately after transfection. After 1 wk the mice were miRNAs iv injected (10 ug) once a wk for 4 wk and the bioluminescence intensity was assessed before every injection.
FIG. 7D: Representative bioluminescence imaging (BLD after 5 wk from the injection.
FIG. 7E: Bone marrow cells from the mice used for the experiment were isolated and human CD-138 positive cells (engrafted cells) were detected using anti-CD-138 antibody by flow cytometry (P2 fraction).
As shown in FIG. 7B and FIG. 21C, IGF-1 (50 ng/ml) stimulated migration of MM cells, MM1s and RPMI-8226. To further examine the role of miRNA-192, miR-215 and miR-194 in MM cells, the inventors investigated the effect of these miRNAs on migration in vivo, using a homing model (Roccaro et al., Blood, 113:6669-6680 (2009)). Nine NOD-SCID mice (for each group) were intravenously injected with 8×10^6 of pre-miRNA-192-, -194 and -215 or Scr probe-transfected GFP^+/Lue^+ MM1S cells. One wk later, mice were iv-injected every week for 4 wk with an individual miRNA or Scr dissolved in PBS (10 μg for each mouse).
Mice were injected with 75 mg/kg of Luciferin (Xenogen, Hopkington, Mass.), and tumor growth was detected by bioluminescence 10 min after the injection. The home-built bioluminescence system used an electron multiplying CCD (Andor Technology Limited, Belfast, United Kingdom) with an exposure time of 30 sec, and an electron multiplication gain of 500 voltage gain×200, 5-by-5 binning, and with background subtraction. Images were analyzed using Image-J software (National Institutes of Health, Bethesda, Md.).
Animal studies were performed according to institutional guidelines. For the sub-cutaneous engraftment model 8 wk old male athymic nu/nu mice (Charles River Laboratories, Wilmington, Mass.) were maintained in accordance with IACUC procedures and guidelines. 8×10^6 of GFP/Luc+MM1s cells were suspended in 0.10 ml of extracellular matrix gel (BD Biosciences) and the mixture was injected subcutaneously into the right flank. […] Measurements of xenograft growth were performed, and tumor volume was estimated using the formula 4/3 a (L*W*H/8). Tumor size was assessed by digital caliper. […] Tumor size was assessed every 7 days by, bioluminescence images. Thirty-five days after injection, mice were analyzed by bioluminescence images and then sacrificed. MM1s bone marrow isolated cells were stained with anti-human CD-138 antibody (BD) and analyzed by FACS analysis. Statistical significance of differences between control and treated animals was evaluated using Student's t test. […]

[1] = tested on: NCI-H929 and RPMI-8226 IGF-1 treated cells; test: Intra-epithelial trans-well migration assay with IGF-1 as attractant; format: cell-based, human; conditions: ectopic expression, vs Scr control
Source text: FIG. 7B: Intra-epithelial migration assay in MM cells miRNAs transfected using HS-5 cells at different concentrations of IGF-1 as attractant. Bars indicate relative fold change of migration compared with the control ±SD.
FIG. 21C: Intra-epithelial migration assay in MM1s and RPMI-8226 cells (pre-miRNA-192, -194, -215, Scr-transfected) using HS-27A stromal cell as cellular layer at different concentrations of IGF-1 as attractant. Bars indicate relative fold change of migration compared with the control. All experiments were performed in triplicate.
To this end, the inventors used intra-epithelial trans-well migration assay with IGF-1 at various concentrations as attractant and two bone marrow-derived stromal cells, HS-5 (fibroblast-like) and HS-27A (epithelial-like) as cell layer.
IGF-I-induced MM transendothelial migration was determined using 24 well, 6.5 mm internal diameter transwell cluster plates with polycarbonate membranes ([…] pore size) separating the 2 chambers (Corning Costar, Cambridge, Mass.). Bone marrow stromal cell lines HS-5 and HS-27A were grown on the insert for 24 hrs to produce a confluent monolayer. […] At the end of the incubation period, cells migrating through endothelial or bone marrow stromal cell layers into the lower chamber were harvested, stained with trypan blue, and counted under a microscope.

| Substance | cells in G0/G1 arrest (MM1s and NCI-H929 cells) [%] | tumor burden (bioluminescence imaging) (GFP+/Luc+ MM1S cells) | bone marrow engraftment of MM1s (human CD-138+ cells by FACS) (GFP+/Luc+ MM1S cells) [%] | migration and tissue invasion [1] |
| --- | --- | --- | --- | --- |
| miR-192: microRNA, p53-activated, down-regulated in MM; transfected as miRNA precursor (Ambion) or lentivector; SEQ ID NO:56 (CUGACCUAUGAAUUGACAGCC; listed as RNA, chemistry not given here; listed as Homo sapiens) | ~60 | nearly nonexistent | 4±2 | significant decrease |
| miR-215: microRNA, p53-activated, down-regulated in MM; transfected as miRNA precursor (Ambion) or lentivector; SEQ ID NO:58 (AUGACCUAUGAAUUGACAGAC; listed as RNA, chemistry not given here; listed as Homo sapiens) | ~60 | nearly nonexistent | 2±2 | significant decrease |
